What all share (experiment): Protein kinase inhibition assay
For one assay, the system named is p70S6K(h). In kind it is biochemical, human. The conditions noted are these: 2.5 μM. The method, then: (§1) Certain compounds were tested for activity in protein kinase inhibition assays. All substrates were dissolved and diluted to working stocks in de-ionized water, apart from histone H1 (10× working stock in 20 mM MOPS pH 7.0), PDKtide (10× working stock in 50 mM Tris pH 7.0) ATF2 (which is typically stored at a 20× working stock in 50 mM Tris pH 7.5, 150 mM NaCl, 0.1 mM EGTA, 0.03% Brij-35, 50% glycerol, 1 mM benzamidine, 0.2 mM PMSF and 0.1% R-mercaptoethanol), KKLNRTLSFAEPG (SEQ ID NO:203) and RRRLSFAEPG (SEQ ID NO:204) (50 mM HEPES pH 7.4) and GGEEEEYFELVKKKK (SEQ ID NO:205) (20 mM MOPS pH 7.0). All kinases were pre-diluted to a 10× working concentration prior to addition into the assay. The composition of the dilution buffer for each kinase is detailed below.
(§2) In a final reaction volume of 25 μl, p70S6K (h) (5-10 mU) is incubated with 8 mM MOPS pH 7.0, 0.2 mM EDTA, 100 μM KKRNRTLTV (SEQ ID NO:212), 10 mM MgAcetate and [gamma-33P-ATP] (specific activity approx. 500 cpm/pmol, concentration as required). The reaction is initiated by the addition of the MgATP mix. After incubation for 40 minutes at room temperature, the reaction is stopped by the addition of 5 μl of a 3% phosphoric acid solution. 10 μl of the reaction is then spotted onto a P30 filtermat and washed three times for 5 minutes in 75 mM phosphoric acid and once in methanol prior to drying and scintillation counting.

A further assay concerns the target BTK(h) (Homo sapiens, UniProt Q06187). The class given is biochemical. The conditions noted are these: read-out: percent residual activity of BTK(h). The method, then:
as §1
In a final reaction volume of 25 μl, BTK (h) (5-10 mU) is incubated with 8 mM MOPS pH 7.0, 0.2 mM EDTA, 250 μM KVEKIGEGTYGVVYK (SEQ ID NO:211) (Cdc2 peptide), 10 mM MgAcetate and [gamma-33P-ATP] (specific activity approx. 500 cpm/pmol, concentration as required). The reaction is initiated by the addition of the MgATP mix. After incubation for 40 minutes at room temperature, the reaction is stopped by the addition of 5 μl of a 3% phosphoric acid solution. […]

The target of the next assay is BRK(h) (Homo sapiens, UniProt Q13882). The class given is biochemical. The conditions noted are these: read-out: percent residual activity of BRK(h). The method, then: as §1
as §2, with “BRK” for “p70S6K”, “5 mM MnCl2, 0.1 mg/ml poly (Glu, Tyr) 4:1,” for “100 μM KKRNRTLTV (SEQ ID NO:212),”, “Filtermat A” for “P30 filtermat”

The next assay has as its target IRAK4(h) (Homo sapiens, UniProt Q9NWZ3). In kind it is biochemical. The conditions noted are these: read-out: percent residual activity of IRAK4(h). The method, then:
as §1
as §2, with “IRAK4” for “p70S6K”, “0.33 mg/ml myelin basic protein,” for “100 μM KKRNRTLTV (SEQ ID NO:212),”

The target of a further assay is PAR-1Bα(h) (Homo sapiens, UniProt Q7KZI7). The class given is biochemical. The conditions noted are these: read-out: percent residual activity of PAR-1Bα(h). The procedure:
as §1
as §2, with “μl, PAR-1Bα” for “μl, p70S6K”, “μM […]” for “μM KKRNRTLTV”, “ID NO:213),” for “ID NO:212),”, “10 pi” for “10 μl”

Another assay addresses PKCβI(h) (Homo sapiens, UniProt P05771). In kind it is biochemical. The conditions noted are these: read-out: percent residual activity of PKCβI(h). The method, then:
as §1
In a final reaction volume of […], PKCβI (h) (5-10 mU) is incubated with 20 mM HEPES pH 7.4, 0.03% Triton X-100, 0.1 mM CaCl2, 0.1 mg/ml phosphatidylserine, 10 μg/ml diacylglycerol, 0.1 mg/ml histone H1, 10 mM MgAcetate and [gamma-33P-ATP] (specific activity approx. 500 cpm/pmol, concentration as required). The reaction is initiated by the addition of the MgATP mix. After incubation for 40 minutes at room temperature, the reaction is stopped by the addition of 5 μl of a 3% phosphoric acid solution. […]

Consider two molecules from patent US20070117770A1, “Human ribosomal DNA (rDNA) and ribosomal RNA (rRNA) nucleic acids and uses thereof” (Cylene Pharmaceuticals, Inc., priority 2005, published 2007).

Sequence of BRK(h) (Q13882 whole entry): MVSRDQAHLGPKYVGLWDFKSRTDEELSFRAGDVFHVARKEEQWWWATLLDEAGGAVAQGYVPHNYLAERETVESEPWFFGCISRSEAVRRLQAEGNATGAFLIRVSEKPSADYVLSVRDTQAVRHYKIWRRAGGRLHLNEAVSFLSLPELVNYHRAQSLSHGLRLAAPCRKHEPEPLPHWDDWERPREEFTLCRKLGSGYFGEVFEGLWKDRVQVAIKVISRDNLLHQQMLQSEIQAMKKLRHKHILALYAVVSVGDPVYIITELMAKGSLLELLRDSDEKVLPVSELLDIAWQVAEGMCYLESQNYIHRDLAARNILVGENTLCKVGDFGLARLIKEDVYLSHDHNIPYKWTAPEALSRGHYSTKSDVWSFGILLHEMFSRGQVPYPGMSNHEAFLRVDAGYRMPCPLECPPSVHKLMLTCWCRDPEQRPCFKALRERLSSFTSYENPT
Sequence of PKCβI(h) (P05771 whole entry): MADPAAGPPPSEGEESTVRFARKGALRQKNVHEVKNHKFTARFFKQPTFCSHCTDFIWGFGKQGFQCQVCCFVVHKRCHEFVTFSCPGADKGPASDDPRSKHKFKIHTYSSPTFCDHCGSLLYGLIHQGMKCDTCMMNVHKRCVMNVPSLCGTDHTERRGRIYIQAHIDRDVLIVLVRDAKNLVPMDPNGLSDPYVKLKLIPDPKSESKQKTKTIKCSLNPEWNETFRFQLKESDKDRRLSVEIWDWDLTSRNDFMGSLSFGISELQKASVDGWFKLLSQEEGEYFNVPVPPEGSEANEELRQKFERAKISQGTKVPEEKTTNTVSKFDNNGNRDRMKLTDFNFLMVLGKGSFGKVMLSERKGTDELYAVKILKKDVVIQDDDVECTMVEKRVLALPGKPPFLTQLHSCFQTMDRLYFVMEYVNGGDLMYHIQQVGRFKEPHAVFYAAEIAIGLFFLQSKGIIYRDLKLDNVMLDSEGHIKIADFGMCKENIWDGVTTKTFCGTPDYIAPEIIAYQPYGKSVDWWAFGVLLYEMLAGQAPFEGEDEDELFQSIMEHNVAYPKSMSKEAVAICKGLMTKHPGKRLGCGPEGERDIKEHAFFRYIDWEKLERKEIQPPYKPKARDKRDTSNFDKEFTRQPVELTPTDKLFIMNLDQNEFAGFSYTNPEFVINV
Sequence of PAR-1Bα(h) (Q7KZI7 1-725 isoform Q7KZI7-4): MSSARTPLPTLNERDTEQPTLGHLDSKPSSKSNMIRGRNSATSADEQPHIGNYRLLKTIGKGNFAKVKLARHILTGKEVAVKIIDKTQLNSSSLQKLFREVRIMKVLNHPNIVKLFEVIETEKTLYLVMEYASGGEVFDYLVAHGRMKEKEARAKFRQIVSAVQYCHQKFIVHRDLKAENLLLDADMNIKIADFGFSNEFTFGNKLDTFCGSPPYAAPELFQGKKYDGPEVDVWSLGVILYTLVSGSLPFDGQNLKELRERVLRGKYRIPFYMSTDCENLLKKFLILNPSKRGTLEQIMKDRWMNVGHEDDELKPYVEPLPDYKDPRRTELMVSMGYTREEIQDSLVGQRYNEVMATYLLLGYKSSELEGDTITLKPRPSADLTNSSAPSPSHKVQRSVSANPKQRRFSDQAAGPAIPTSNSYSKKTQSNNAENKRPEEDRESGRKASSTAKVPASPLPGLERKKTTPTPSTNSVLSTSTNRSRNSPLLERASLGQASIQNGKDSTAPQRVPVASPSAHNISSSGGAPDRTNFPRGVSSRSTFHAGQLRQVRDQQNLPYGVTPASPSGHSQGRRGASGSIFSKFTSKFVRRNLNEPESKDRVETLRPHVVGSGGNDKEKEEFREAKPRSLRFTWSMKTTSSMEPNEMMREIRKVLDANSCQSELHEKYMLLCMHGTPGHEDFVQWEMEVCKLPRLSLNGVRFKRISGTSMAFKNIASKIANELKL
Sequence of IRAK4(h) (Q9NWZ3 whole entry): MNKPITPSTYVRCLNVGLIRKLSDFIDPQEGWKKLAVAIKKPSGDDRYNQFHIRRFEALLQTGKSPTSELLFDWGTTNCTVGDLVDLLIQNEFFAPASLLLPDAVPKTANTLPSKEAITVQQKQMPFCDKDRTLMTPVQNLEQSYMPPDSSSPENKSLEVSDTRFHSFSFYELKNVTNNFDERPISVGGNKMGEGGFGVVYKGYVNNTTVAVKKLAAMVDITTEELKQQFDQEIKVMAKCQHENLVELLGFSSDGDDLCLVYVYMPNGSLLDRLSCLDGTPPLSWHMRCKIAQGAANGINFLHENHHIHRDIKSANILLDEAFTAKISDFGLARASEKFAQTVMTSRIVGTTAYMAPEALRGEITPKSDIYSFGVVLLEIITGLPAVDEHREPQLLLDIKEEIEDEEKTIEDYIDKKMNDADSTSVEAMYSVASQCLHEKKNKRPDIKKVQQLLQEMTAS
Sequence of BTK(h) (Q06187 whole entry): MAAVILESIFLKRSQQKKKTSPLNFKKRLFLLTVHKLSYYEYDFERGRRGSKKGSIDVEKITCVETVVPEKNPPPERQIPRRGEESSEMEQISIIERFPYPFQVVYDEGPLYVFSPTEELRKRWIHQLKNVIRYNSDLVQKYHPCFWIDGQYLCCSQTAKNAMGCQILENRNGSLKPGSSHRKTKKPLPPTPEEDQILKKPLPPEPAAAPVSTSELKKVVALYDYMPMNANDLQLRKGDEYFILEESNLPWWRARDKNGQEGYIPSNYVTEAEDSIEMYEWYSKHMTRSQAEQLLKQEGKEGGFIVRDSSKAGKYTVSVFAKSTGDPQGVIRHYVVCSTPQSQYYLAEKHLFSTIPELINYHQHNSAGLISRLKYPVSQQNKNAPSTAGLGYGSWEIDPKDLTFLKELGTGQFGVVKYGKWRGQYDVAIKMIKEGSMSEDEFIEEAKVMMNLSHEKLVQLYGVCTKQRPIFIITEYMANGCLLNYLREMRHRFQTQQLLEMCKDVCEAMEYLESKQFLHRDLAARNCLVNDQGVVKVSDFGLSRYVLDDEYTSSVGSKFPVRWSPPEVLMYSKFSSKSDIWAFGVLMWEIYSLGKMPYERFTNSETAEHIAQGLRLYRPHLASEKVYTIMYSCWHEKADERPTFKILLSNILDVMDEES

Take `CN1CCCC1CCNC(=O)c1cn2c3c(c(N4CCC(c5cnccn5)C4)c(F)cc3c1=O)Oc1cc3ccccc3cc1-2` (stereo not shown) [Compound A-1]: in the assay on p70S6K(h), the “inhibition of p70S6K” value was “greater than 80%”. The “percent residual activity of p70S6K(h)” value with p70S6K(h) was 18%. In addition, the remaining activity at 2.5 µM at BTK(h) was found to be 60%; at BRK(h), 131%; at IRAK4(h) it was 98%; at PAR-1Bα(h), 88%; on PKCβI(h), 94%.

Regarding `CC(=O)N1CCN(c2ccc3c(=O)c(C(=O)NCCN4CCCC4)c4n(C)c5ccccc5n4c3n2)CC1` [Compound B-1], the “percent residual activity of p70S6K(h)” value in the assay on p70S6K(h) worked out at 97%. Moreover, the remaining activity at 2.5 µM turned out to be 101% on BTK(h); 98% on BRK(h); 107% at IRAK4(h); 100% on PAR-1Bα(h); 97% on PKCβI(h).
